Measurements as given in the supplement of paper PMC11451515.

Test system: P12-Ichikawa
Experiment: cell viability relative to DMSO control; higher = less cytotoxic
Conditions: 48 h
Outline: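 Cells were incubated for 48 h at 37°C before CellTiter-Glo One luminescence was read. The cells were NOMO1 or SEM (500 cells/well) or P12-Ichikawa (1000 cells/well) leukemia cells, adapted for at least four passages in each medium and seeded in 1536-well plates (5 μl). Dosing used library compounds in DMSO applied by pin over 11 threefold points, 47 μM to 0.79 nM. Viability is the per-plate percentage of DMSO wells, with cell-free wells as background.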

[1] = HPLM + 10% dialyzed FBS, 0.000781 µM
[2] = HPLM + 10% dialyzed FBS, 0.00234 µM
[3] = HPLM + 10% dialyzed FBS, 0.00702 µM
[4] = HPLM + 10% dialyzed FBS, 0.0211 µM
[5] = HPLM + 10% dialyzed FBS, 0.0632 µM
[6] = HPLM + 10% dialyzed FBS, 0.19 µM
[7] = HPLM + 10% dialyzed FBS, 0.569 µM
[8] = HPLM + 10% dialyzed FBS, 1.71 µM
[9] = HPLM + 10% dialyzed FBS, 5.12 µM
[10] = HPLM + 10% dialyzed FBS, 15.4 µM
[11] = HPLM + 10% dialyzed FBS, 46.1 µM
[12] = RPMI 5 mM glucose + 10% FBS, 0.000781 µM
[13] = RPMI 5 mM glucose + 10% FBS, 0.00234 µM
[14] = RPMI 5 mM glucose + 10% FBS, 0.00702 µM
[15] = RPMI 5 mM glucose + 10% FBS, 0.0211 µM
[16] = RPMI 5 mM glucose + 10% FBS, 0.0632 µM
[17] = RPMI 5 mM glucose + 10% FBS, 0.19 µM
[18] = RPMI 5 mM glucose + 10% FBS, 0.569 µM
[19] = RPMI 5 mM glucose + 10% FBS, 1.71 µM
[20] = RPMI 5 mM glucose + 10% FBS, 5.12 µM
[21] = RPMI 5 mM glucose + 10% FBS, 15.4 µM
[22] = RPMI 5 mM glucose + 10% FBS, 46.1 µM
[23] = RPMI 5 mM glucose + 10% dialyzed FBS, 0.000781 µM
[24] = RPMI 5 mM glucose + 10% dialyzed FBS, 0.00234 µM
[25] = RPMI 5 mM glucose + 10% dialyzed FBS, 0.00702 µM
[26] = RPMI 5 mM glucose + 10% dialyzed FBS, 0.0211 µM
[27] = RPMI 5 mM glucose + 10% dialyzed FBS, 0.0632 µM
[28] = RPMI 5 mM glucose + 10% dialyzed FBS, 0.19 µM
[29] = RPMI 5 mM glucose + 10% dialyzed FBS, 0.569 µM
[30] = RPMI 5 mM glucose + 10% dialyzed FBS, 1.71 µM
[31] = RPMI 5 mM glucose + 10% dialyzed FBS, 5.12 µM
[32] = RPMI 5 mM glucose + 10% dialyzed FBS, 15.4 µM
[33] = RPMI 5 mM glucose + 10% dialyzed FBS, 46.1 µM

| Compound | cell viability [1] [%] | cell viability [2] [%] | cell viability [3] [%] | cell viability [4] [%] | cell viability [5] [%] | cell viability [6] [%] | cell viability [7] [%] | cell viability [8] [%] | cell viability [9] [%] | cell viability [10] [%] | cell viability [11] [%] | cell viability [12] [%] | cell viability [13] [%] | cell viability [14] [%] | cell viability [15] [%] | cell viability [16] [%] | cell viability [17] [%] | cell viability [18] [%] | cell viability [19] [%] | cell viability [20] [%] | cell viability [21] [%] | cell viability [22] [%] | cell viability [23] [%] | cell viability [24] [%] | cell viability [25] [%] | cell viability [26] [%] | cell viability [27] [%] | cell viability [28] [%] | cell viability [29] [%] | cell viability [30] [%] | cell viability [31] [%] | cell viability [32] [%] | cell viability [33] [%] |
| --- | --- | --- | --- | --- | --- | --- | --- | --- | --- | --- | --- | --- | --- | --- | --- | --- | --- | --- | --- | --- | --- | --- | --- | --- | --- | --- | --- | --- | --- | --- | --- | --- | --- |
| O=C(Nc1cccc2c(=O)cc(-c3nnn[nH]3)oc12)c1ccc(OCCCCc2ccccc2)cc1 | 86.7 | 84.2 | 90.4 | 93.9 | 101 | 94.8 | 90 | 96 | 96.9 | 101 | 15.5 | 81 | 84.9 | 99.9 | 91.8 | 95.7 | 89.4 | 88.9 | 91 | 87.6 | 80 | 54.6 | 73.1 | 80.4 | 87 | 88.7 | 86.7 | 92.5 | 85.1 | 81.6 | 85.5 | 85.4 | 21.7 |
| CC(C)N(CCCNC(=O)Nc1ccc(C(C)(C)C)cc1)C[C@H]1O[C@@H](n2cc(Br)c3c(N)ncnc32)[C@H](O)[C@@H]1O | 85.8 | 89.9 | 92.2 | 93 | 97 | 94 | 97.9 | 88 | 81.4 | 77.8 | 13.8 | 87.3 | 91.6 | 90.8 | 86.1 | 87.1 | 87.2 | 91.5 | 85.8 | 87.1 | 74 | 47.2 | 83.5 | 90 | 89.6 | 88.3 | 85.4 | 88.6 | 91.8 | 80.1 | 85.4 | 68.9 | 39.2 |
| CN1CCN(c2cc(C(=O)Nc3ccc4c(c3)-c3c(c(C(N)=O)nn3-c3ccc(F)cc3)CC4)c(Cl)cn2)CC1 | 115 | 109 | 102 | 114 | 114 | 107 | 105 | 98.1 | 104 | 95 | 3.56 | 113 | 111 | 116 | 113 | 109 | 120 | 107 | 102 | 103 | 104 | 12 | 113 | 107 | 122 | 111 | 124 | 109 | 105 | 100 | 104 | 102 | 5.67 |
